Experimental data from US20230293488A1, “COMPOSITIONS AND METHODS OF USE OF ANTIBACTERIAL DRUG COMBINATIONS” (priority 2015, published 2023).
Several values for one entry are separate records, joined by “and”; a condition that tells them apart may be missing. Equal entries are not always repeated. Entries after “also recorded” stand apart in the source; their conditions may differ. Where two headings read alike, the source gives them in different places.

Key:
[1] = system: MRSA N315; experiment: In vitro MICs and FICI for MRSA N315 after passage in vivo; assay type: cell-based, Staphylococcus aureus
Text: We tested MRSA N315 cultures from blood drawn from mice treated with meropenem, piperacillin, or vehicle for their in vitro MICs against ME/PI/TZ and its constituent single drugs to determine whether adaptation occurred during passage in vivo. All four tested isolates of MRSA N315 had identical MICs for the triple ME/PI/TZ and all constituent drugs, and thus identical synergy (Table 6B).
Microbiological Studies: MRSA N315 was a gift from Dr. Steven Gill, University of Rochester, Rochester, NY, USA. S. aureus ATCC 29213 was acquired from the American Type Culture Collection. De-identified clinical MRSA isolates were selected at random from the clinical isolate strain bank at Barnes-Jewish Hospital, St. Louis, MO, USA. Minimal inhibitory concentration (MIC) assays for inhibition of growth were performed following the recommendations of the Clinical and Laboratory Standards Institute (CLSI)^43. Briefly, 23 antibacterial compounds (Supplemental Table 1) were selected based on coverage of all major drug classes, including three compounds not classified as antibiotics for human use, but with known antibacterial properties. Compounds were dissolved in dimethyl sulfoxide (DMSO) to a stock concentration of 50 mg/ml. Exceptions: Sulfometuron at 20 mg/ml in DMSO; Tobramycin, D-cycloserine, and colistin at 50 mg/ml in H2O and filtered at 2 μm. The 23 compounds were formulated into all 253 possible unique pairwise combinations at fixed ratios and at 100× concentrations in solvent. To increase the range of concentrations assayed for possible synergistic or antagonistic drug interactions (>2,000-fold), the drug stocks were arrayed into threefold dilution series down eight rows in 96-well Costar master drug plates, using a BioMek FX robotic liquid handler (Beckman Coulter, Inc.). Drugs were then mixed 1:100 into 96-well plates containing 200 μl/well of cation-adjusted Mueller-Hinton broth (CAMHB). All drug susceptibility assay wells were inoculated with ˜1 μl of mid-log phase bacterial culture at 0.5 McFarland standard (˜2×10^8 CFU/ml) and grown at 37° C. for 24 h. Endpoint growth at 37° C. after 24 h was determined by optical density at 600 nm ≥0.1 using a Synergy H1 reader (BioTek, Inc.).
(§1) Bacterial isolation from blood. Blood samples were checked for bacterial growth by plating and liquid culture. Whole blood (100 μl, three samples per group) was spread onto Brain-Heart Infusion (BHI) agar plates and incubated at 36° C. overnight. Colonies were counted and three colonies were selected, grown overnight in liquid BHI culture at 36° C., then mixed 1:1 with 30% LB-glycerol and stored at −80° C. The remaining three blood samples of each group (50 μl) was added to 5 ml BHI broth and incubated overnight at 36° C. When growth was noted, cultures were mixed 1:1 with 30% LB-glycerol and stored at −80° C.

[2] = system: MRSA COL pbp2a/mecA antisense (AS) strain; experiment: Xylose-inducible antisense-RNA strain susceptibility (PBP2a repression); assay type: cell-based, Staphylococcus aureus; settings: targeted repression of PBP2a
Text: (§2) We confirmed the targets of the constituents of ME/PI/TZ by reducing the expression of PBP1, PBP2, PBP2a or PBP3 using a xylose-inducible antisense-RNA strategy in the MRSA COL strain background^49. When expression levels of PBP2a were attenuated, the strain behaved as a methicillin-susceptible S. aureus and was sensitized to all tested β-lactams (FIG. 6A-C).

[3] = system: MRSA COL pbp2 antisense (AS) strain; experiment: Xylose-inducible antisense-RNA strain susceptibility (PBP2 repression); assay type: cell-based, Staphylococcus aureus; settings: targeted repression of PBP2
Text: as §2

[4] = system: MRSA N315; experiment: Neutropenic mouse peritonitis model of MRSA infection; assay type: in vivo, mice; settings: for Result (Alive/Dead) / Result (survivors per group) / Bacterial detection results: Plated: 67 mg/kg (of each) every 8 hrs SC; for Result (Alive/Dead) / Result (survivors per group): 6 doses; for Result (Alive/Dead) / Bacterial detection results: Plated: one line per mouse; for Result (survivors per group): six days post-infection; for Bacterial detection results: Plated: cheek bleed 11 h post-infection, ~100 uL blood plated, 67 mg/kg; for mice that succumbed to the infection: most within 48 h, 67 mg/kg (of each)
Text: In vivo mouse model of MRSA infection: Animals. Outbred ICR female mice (6-8 weeks old, 17-25 g body weight; Harlan Laboratories, Inc., Indianapolis, IN, USA) were used. Mice were given Teklad 2019 Extruded Rodent Diet (Harlan Laboratories, Inc., Indianapolis, IN, USA) and water ad libitum. Mice were maintained in polycarbonate shoebox cages containing corncob (The Andersons, Inc., Maumee, OH, USA) and Alpha-dri (Shepherd Specialty Papers, Inc., Richland, MI, USA) bedding under 12-h light/12-h dark cycle at 22±1° C. All procedures involving animals were approved by the University of Notre Dame Institutional Animal Care and Use Committee.
Neutropenic mouse peritonitis model of MRSA infection. Doses of cyclophosphamide (100 μl of 50 mg/ml in 0.9% saline corresponding to 200 mg/kg; Alfa Aesar, Ward Hill, MA, USA) were given intraperitoneally (IP) at 4 days and 1 day prior to infection. The S. strain N315 was streaked onto Brain-Heart Infusion (BHI; Becton Dickson and Company, Sparks, MD, USA) agar and grown overnight at 36° C. The MRSA N315 bacterial inoculum was adjusted to approximately 1×10^8 CFU/ml (corresponding to OD540=0.5), then diluted to give 2×10^7CFU/ml. A 10% porcine mucin (Sigma-Aldrich, St. Louis, MO, USA) suspension was prepared and adjusted to pH 7. Immediately prior to infection, the bacterial inocula were diluted 1:1 with 10% mucin to a final concentration of 1×10^7CFU/ml in 5% mucin. The mice were then infected IP with 0.5 ml of this inoculum. In vivo dosing of compounds in mice was compared with mean or range peak human plasma concentrations of studied β-lactams^44,46,47,62,63.
Antibiotic preparation. Meropenem was obtained from AK Scientific, Inc. (Union City, CA, USA), piperacillin and tazobactam were obtained from Sigma-Aldrich Co. (St. Louis, MO, USA). Linezolid (CAS 165800-03-3) was obtained from AmplaChem (Carmel, IN, USA). Antibiotics were dissolved at a concentration of 16.67 mg/ml in 30% DMSO/30% propylene glycol/40% water. Linezolid was used as positive control and was prepared at 7.5 mg/ml. Vehicle (30% DMSO/30% propylene glycol/40% water) was included as negative control. The dosing formulations were sterilized by passing through 0.2 μm filter prior to injection.
as §1
Statistical Analyses: Data for minimal inhibitory concentrations (MICs) are derived from triplicate measurements. Adaptation data are taken from two replicate experiments for each drug combination condition. Data for qRT-PCR expression profiling are derived from three replicate experiments taken from three biological replicates each, with standard error of measurement calculated. Mice were treated in groups of six, and growth determination of bacteria determined via plate and broth culture in triplicate. Fisher's Exact test with Bonferroni correction was used for 8 independent tests (comparing each treatment to 610 vehicle).

[5] = system: MRSA COL pbpA antisense (AS) strain; experiment: Xylose-inducible antisense-RNA strain susceptibility (PBP1 repression); assay type: cell-based, Staphylococcus aureus; settings: targeted repression of PBP1
Text: as §2

[6] = biological target: allosteric site of PBP2a (Staphylococcus aureus, UniProt P07944); experiment: Binding to the allosteric site of PBP2a
Chain of allosteric site of PBP2a (P07944 whole entry): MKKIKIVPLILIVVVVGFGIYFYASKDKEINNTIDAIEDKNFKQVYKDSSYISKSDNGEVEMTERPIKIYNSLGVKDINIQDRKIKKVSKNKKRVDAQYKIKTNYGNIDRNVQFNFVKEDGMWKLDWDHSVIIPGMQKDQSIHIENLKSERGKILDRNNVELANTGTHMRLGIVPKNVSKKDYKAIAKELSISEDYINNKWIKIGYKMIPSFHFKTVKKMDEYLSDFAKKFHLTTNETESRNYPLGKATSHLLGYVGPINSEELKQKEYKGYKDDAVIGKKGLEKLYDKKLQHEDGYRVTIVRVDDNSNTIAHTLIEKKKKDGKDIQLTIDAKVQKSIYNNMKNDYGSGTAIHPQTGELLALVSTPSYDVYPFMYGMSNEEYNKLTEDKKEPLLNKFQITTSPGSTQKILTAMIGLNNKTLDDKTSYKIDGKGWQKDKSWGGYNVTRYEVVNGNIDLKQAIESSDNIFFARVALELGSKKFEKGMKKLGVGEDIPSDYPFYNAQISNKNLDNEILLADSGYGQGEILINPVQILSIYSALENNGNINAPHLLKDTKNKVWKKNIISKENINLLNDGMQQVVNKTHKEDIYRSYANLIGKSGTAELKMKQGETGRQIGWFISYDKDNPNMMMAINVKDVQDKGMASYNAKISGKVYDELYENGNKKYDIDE

[7] = colonies from mice given Vehicle

Row | SMILES | MIC ([1]; Staphylococcus aureus, MRSA) [µg/mL] | MIC ([1]; Wild-type N315) [µg/mL] | MIC ([1]; colonies from mice given PI) [µg/mL] | MIC [1, 7] [µg/mL] | susceptibility under xylose induction [2] | susceptibility under xylose induction [3] | Result (Alive/Dead) [4] | Result (survivors per group) [4] | Bacterial detection results: Plated [4] | mice that succumbed to the infection [4] | susceptibility under xylose induction [5] | Kd ([6]; read-out: dissociation constant (Kd)) [µM] | Kd ([6]; read-out: dissociation constant (Kd), equivalent (converted)) [µM]
1 | CCN1CCN(C(=O)N[C@@H](C(=O)N[C@@H]2C(=O)N3[C@@H]2SC(C)(C)[C@@H]3C(=O)O)c2ccccc2)C(=O)C1=O [Piperacillin] | 33.3 | 33.3 | 33.3 | 33.3 | Increased susceptibility | increased susceptibility; also recorded: increased effectiveness | Dead | 0/6 | Plated: 40 colonies | all mice | increased susceptibility |  | 
2 | C[C@@H](O)[C@H]1C(=O)N2C(C(=O)O)=C(S[C@@H]3CN[C@H](C(=O)N(C)C)C3)[C@H](C)[C@H]12 [Meropenem] | 33.3 | 33.3 | 33.3 | 33.3 | increased susceptibility | increased susceptibility; also recorded: increased effectiveness | Alive (4×) and Dead (2×) | 4/6 | Plated: 11 colonies; also recorded: Plated: 3 colonies | several mice | increased susceptibility; also recorded: larger zones of inhibition | 270 ± 80 | 271
